Key:
Caski cells = assay: CD107a mobilization (degranulation) assay of L1-stimulated T cells against pretreated Caski cells; assay type: cell-based
Procedure: PBMCs were obtained from blood of a healthy, HLA-A*0201 positive donor by density gradient centrifugation with lymphocyte separation medium (PAA, Pasching, Austria). PBMCs were resuspended in RPMI medium (Gibco, Paisley, UK), containing 5% human serum and seeded in cell culture flasks. After 4 hours of adherence at 37°C the non-adherent cells were removed. To stimulate the differentiation of monocytes into dendritic cells, the adherent fraction of cells was cultured in CellGro Medium (CellGenix, Freiburg, Germany) containing GM-CSF (1000 U/ml, Promokine, Heidelberg, Germany) and IL-4 (666,7 U/ml, Promokine, Heidelberg, Germany) for 5-7 days. Then, IL-4 and GM-CSF were added again together with a terminal differentiation-inducing cocktail containing the proinffammatory cytokines IL-6 (1000 U/ml Promokine, Heidelberg, Germany), IL-1β (10 ng/ml Promokine, Heidelberg, Germany), PGE-2 ([…], Promokine, Heidelberg, Germany) and TNF-α (10 ng/ml, Promokine, Heidelberg, Germany) were added and cells were incubated overnight. […]
To monitor the degranulation of L1-stimulated T cells (effectors) induced by Caski cells (targets), Caski cells pretreated with different concentrations of 5-Aza-2'-deoxycytidine (0.1 µM and 1.0 µM) for 12 days or untreated cells were used. […] Degranulation rate was measured as the fraction of CD107a/CD8 double staining cells relative to total CD8 positive cells (Fig. 5).

cancer cell lines = conditions: low-dose treatment; cited from earlier work
HPV16 L1 protein = assay: Detection of HPV L1 capsid protein by immunoblotting (Western blot) in treated Caski cells; assay type: cell-based; conditions: Caski cells treated for 28 days, band at approximately 55 kDa, anti HPV16 L1 polyclonal rabbit antibodies, Fig. 4
Procedure: 5-aza-2'-deoxycytidine was added daily to cultures of Caski cells at concentrations […]. Caski cells were cultured with medium changed every 24 hours. Treatments were stopped at day 28 and the cells were grown in the absence of drugs for […]. The same culture conditions were used for untreated and DMSO treated Caski cells. Samples were collected on days 7, 14, 21, 28 and 38 for genomic DNA and total RNA purifications.
Protein extracts were also obtained from Caski cells on days 7, 14, 21, 28 and 38 of treatment. Cells were lysed in RIPA buffer containing Protease Inhibitor Cocktail (Sigma). Whole-cell lysates were prepared in denaturing SDS sample buffer and subjected to 12% SDS-PAGE. Proteins were transferred to PVDF Membrane (Invitrogen) and the blots were blocked with 5% non-fat dry milk in TBS-T buffer. The anti HPV16 L1 polyclonal rabbit antibodies (kindly provided by Dr Martin Muller, DKFZ, Germany) were used to detect the HPV16 L1 protein. Horseradish peroxidase conjugated secondary antibodies (1:2000 dilution, Anti-rabbit IgG, HRP-linked Antibody #7074 (Cell Signaling) were detected using Western Blotting Chemiluminescence Luminol Reagent (Santa Cruz).

Nc1ncn([C@@H]2O[C@H](CO)[C@@H](O)[C@H]2O)c(=O)n1 [azacitidine]
cytolytic activity of T-cells stimulated in vitro with L1-derived peptides towards Caski cells (Caski cells; treated Caski cells expressing the L1-antigen, degranulation rate, Fig. 5 legend): Enhanced

Nc1ncn([C@@H]2O[C@H](CO)[C@@H](O)[C@H]2O)c(=O)n1 [5-azacytidine]
expression of immune-related genes (cancer cell lines): leads to expression of immune-related genes

Nc1ncn([C@H]2C[C@H](O)[C@@H](CO)O2)c(=O)n1 [5-aza-2'-deoxycytidine]
fraction of T cells undergoing degranulation (CD107a/CD8 double staining cells relative to total CD8 positive cells) (Caski cells; Caski cells pretreated with 0.1 µM and 1.0 µM for 12 days vs untreated, effectors and targets 1:1, 5 hours, Fig. 5): increased | L1 protein expression level (HPV16 L1 protein): Significant increase
